Measured values published in patent US20230042936A1, “PYRIDO[2,3-d]PYRIMIDIN-7(8H)-ONES AS CDK INHIBITORS” (PROSENESTAR LLC, priority 2020, published 2023).
≈ marks a conversion by molar mass, not a printed value. Read-outs that look alike come from different tables or passages of the source.

How the values were obtained:
[1] = target: CDK3/CycE1 (Homo sapiens, UniProt Q00526); experiment: Kinase profiling; format: biochemical; settings: 10 semi-logarithmic dilutions from 50 μM, singlicate
[2] = target: ERK1 (Homo sapiens, UniProt P27361); experiment: Kinase profiling; format: biochemical; settings: 10 semi-logarithmic dilutions from 50 μM, singlicate
[3] = target: HIPK2 (Homo sapiens, UniProt Q9H2X6); experiment: Kinase profiling; format: biochemical
HIPK2, sequence (Q9H2X6 whole entry): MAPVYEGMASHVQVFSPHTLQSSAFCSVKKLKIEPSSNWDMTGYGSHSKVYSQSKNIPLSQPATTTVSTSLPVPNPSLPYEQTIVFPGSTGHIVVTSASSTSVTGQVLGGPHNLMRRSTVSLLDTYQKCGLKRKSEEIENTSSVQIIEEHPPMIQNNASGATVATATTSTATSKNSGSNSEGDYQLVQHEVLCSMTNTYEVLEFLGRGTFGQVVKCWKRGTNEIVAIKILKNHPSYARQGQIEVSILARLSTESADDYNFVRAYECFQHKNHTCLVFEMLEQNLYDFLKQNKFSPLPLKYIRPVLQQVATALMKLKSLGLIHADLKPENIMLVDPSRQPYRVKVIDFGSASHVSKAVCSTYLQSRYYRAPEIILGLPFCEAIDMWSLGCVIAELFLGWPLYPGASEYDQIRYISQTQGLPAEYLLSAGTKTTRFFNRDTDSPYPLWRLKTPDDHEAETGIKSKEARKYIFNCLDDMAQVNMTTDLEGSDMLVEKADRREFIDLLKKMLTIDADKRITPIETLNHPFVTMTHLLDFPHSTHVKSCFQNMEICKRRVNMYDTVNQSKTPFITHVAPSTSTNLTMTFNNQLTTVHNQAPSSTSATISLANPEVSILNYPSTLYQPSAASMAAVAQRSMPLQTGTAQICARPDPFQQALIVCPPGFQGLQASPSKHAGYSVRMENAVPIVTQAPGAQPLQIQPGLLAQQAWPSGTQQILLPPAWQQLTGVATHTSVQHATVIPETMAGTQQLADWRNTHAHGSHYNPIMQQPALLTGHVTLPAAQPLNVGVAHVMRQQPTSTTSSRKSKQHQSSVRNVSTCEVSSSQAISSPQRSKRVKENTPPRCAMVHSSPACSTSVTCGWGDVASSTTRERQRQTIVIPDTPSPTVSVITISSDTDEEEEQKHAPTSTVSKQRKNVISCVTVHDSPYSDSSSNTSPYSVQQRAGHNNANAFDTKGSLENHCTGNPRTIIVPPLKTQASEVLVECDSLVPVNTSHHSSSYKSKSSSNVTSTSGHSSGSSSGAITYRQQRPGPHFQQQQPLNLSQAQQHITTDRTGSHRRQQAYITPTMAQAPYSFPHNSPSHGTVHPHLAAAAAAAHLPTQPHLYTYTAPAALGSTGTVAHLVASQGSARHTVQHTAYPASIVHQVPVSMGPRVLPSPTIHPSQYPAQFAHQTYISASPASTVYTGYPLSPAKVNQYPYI

[4] = target: CDK19/CycC (Homo sapiens, UniProt Q9BWU1); experiment: Kinase profiling; format: biochemical; settings: 10 semi-logarithmic dilutions from 50 μM, singlicate
CDK19/CycC, sequence (Q9BWU1 whole entry): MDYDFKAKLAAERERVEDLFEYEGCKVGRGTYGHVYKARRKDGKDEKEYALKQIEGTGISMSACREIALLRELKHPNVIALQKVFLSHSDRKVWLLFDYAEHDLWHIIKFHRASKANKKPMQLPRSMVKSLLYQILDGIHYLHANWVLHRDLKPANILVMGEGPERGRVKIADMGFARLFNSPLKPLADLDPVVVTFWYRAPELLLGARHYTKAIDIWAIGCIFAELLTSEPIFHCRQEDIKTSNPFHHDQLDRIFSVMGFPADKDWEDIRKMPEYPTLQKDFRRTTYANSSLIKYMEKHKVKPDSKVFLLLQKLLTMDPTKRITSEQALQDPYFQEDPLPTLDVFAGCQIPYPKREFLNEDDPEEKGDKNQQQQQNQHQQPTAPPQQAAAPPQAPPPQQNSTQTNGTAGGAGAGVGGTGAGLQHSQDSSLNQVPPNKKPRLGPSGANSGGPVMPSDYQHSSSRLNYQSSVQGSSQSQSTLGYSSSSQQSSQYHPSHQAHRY
CDK19/CycC, sequence (P24863 whole entry partner): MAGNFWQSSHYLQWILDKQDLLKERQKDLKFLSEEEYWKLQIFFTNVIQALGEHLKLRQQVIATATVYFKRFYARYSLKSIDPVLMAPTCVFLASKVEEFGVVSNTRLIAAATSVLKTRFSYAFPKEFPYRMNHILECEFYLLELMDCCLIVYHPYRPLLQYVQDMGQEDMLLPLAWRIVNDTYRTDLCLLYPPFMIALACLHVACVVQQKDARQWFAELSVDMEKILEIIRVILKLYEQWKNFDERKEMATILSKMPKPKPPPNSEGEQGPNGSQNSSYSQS

[5] = target: CDK3/CycC (Homo sapiens, UniProt Q00526); experiment: Kinase profiling; format: biochemical; settings: 10 semi-logarithmic dilutions from 50 μM, singlicate
CDK3/CycC, sequence (Q00526 whole entry): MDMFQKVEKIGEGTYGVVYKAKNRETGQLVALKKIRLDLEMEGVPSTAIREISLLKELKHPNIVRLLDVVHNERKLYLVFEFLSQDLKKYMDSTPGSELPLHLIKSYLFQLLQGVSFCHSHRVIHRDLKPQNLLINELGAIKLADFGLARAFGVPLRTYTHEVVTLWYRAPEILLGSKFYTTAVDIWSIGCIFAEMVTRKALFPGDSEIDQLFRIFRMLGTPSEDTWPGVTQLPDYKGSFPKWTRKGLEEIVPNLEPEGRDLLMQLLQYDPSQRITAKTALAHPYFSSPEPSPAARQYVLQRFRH
CDK3/CycC, sequence (P24863 whole entry partner): as the sequence (P24863 whole entry partner) above

[6] = tested on: MCF10 non-transformed mammary epithelial cell line; experiment: Proliferation assay: determination of GI50; format: cell-based, human; settings: Homo sapiens, MCF10; Table 3; 48 h; n = 2 independent experiments
Protocol: (§1) The following human tumor cell lines, all Retinoblastoma (Rb)-proficient, were used in this study: MDA-MB231 (breast cancer), MDA-MB453 (breast cancer), U87MG (glioblastoma) and H460 (lung cancer). MDA-MB468 (breast cancer) and SW1783 (glioblastoma) Rb-deficient cells were also included in the study, as well as the MCF10A non-transformed mammary epithelial cell line. Tumor cell lines were maintained in DMEM or RPMI-1640 medium, depending on the cell line, supplemented with 10% FBS. MCF10A cells were grown in complete mammary epithelial growth medium (MEGM, Lonza). Cell lines were authenticated by short tandem repeat (STR) loci profiling with the GenePrint® 10 System (Promega).
(§2) All human cancer cell lines (Table 2) were obtained from the American Type Culture Collection, and were maintained in DMEM (Hyclone) or RPMI-1640 medium (Sigma) supplemented with 10% fetal bovine serum (Sigma). Non-transformed MCF10 cell line was maintained in MEGM Mammary Epithelial Cell Growth Medium (Lonza). Immortalized mouse embryonic fibroblasts (MEFs) were maintained in DMEM with 10% fetal bovine serum.
(§3) 48 h later cells were fixed with PFA 4% for 15 minutes, stained with 10 μg/ml Hoechst 33342 (Molecular Probes, Thermo Fisher) for 30 minutes and washed twice with PBS. Cells were imaged in a high content screening system (Opera Phoenix™, Perkin Elmer) using a 20× dry objective (30 fields/well). Cell counts were determined by the Opera software (Perkin Elmer) and data were further processed with SPSS software. GI50 was calculated by estimating the absolute IC50 using dose-response inhibition tool in Prism6 (Graphpad Software Inc.).

[7] = tested on: U87MG glioblastoma cell line; experiment: Proliferation assay: determination of GI50; format: cell-based, human; settings: Homo sapiens, U-87 MG
Protocol: as §1, §2, §3

[8] = tested on: H460 lung carcinoma cell line; experiment: Proliferation assay: determination of GI50; format: cell-based, human; settings: Homo sapiens, NCI-H460; Table 3; 48 h; n = 2 independent experiments
Protocol: as §1, §2, §3

[9] = tested on: MDA-MB-231 breast carcinoma cell line; experiment: Proliferation assay: determination of GI50; format: cell-based, human; settings: Homo sapiens, MDA-MB-231
Protocol: as §1, §2, §3

[10] = target: CDK12wt/CycK (Homo sapiens, UniProt Q9NYV4); experiment: Kinase profiling; format: biochemical; settings: 10 semi-logarithmic dilutions from 50 μM, singlicate
[11] = target: T1, AKT1 aa1-480 (Homo sapiens, UniProt P31749); experiment: Kinase profiling; format: biochemical; settings: 10 semi-logarithmic dilutions from 50 μM, singlicate
T1 construct: AKT1 aa1-480
T1 sequence (P31749 whole entry, the tested form may be a part): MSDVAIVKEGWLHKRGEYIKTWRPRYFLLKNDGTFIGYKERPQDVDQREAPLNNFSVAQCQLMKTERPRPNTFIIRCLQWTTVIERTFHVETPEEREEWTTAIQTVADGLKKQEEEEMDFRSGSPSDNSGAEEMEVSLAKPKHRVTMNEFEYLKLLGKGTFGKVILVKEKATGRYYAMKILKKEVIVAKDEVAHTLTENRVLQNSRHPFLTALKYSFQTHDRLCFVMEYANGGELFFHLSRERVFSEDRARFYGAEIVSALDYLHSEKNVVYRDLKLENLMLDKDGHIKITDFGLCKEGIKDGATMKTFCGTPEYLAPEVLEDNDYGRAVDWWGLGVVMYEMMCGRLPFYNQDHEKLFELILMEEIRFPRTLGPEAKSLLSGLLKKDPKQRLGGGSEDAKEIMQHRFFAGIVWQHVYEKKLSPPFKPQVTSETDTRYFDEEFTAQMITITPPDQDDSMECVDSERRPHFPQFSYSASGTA

[12] = target: CDC7/DBF4 (Homo sapiens, UniProt O00311); experiment: Kinase profiling; format: biochemical
CDC7/DBF4, sequence (O00311 whole entry): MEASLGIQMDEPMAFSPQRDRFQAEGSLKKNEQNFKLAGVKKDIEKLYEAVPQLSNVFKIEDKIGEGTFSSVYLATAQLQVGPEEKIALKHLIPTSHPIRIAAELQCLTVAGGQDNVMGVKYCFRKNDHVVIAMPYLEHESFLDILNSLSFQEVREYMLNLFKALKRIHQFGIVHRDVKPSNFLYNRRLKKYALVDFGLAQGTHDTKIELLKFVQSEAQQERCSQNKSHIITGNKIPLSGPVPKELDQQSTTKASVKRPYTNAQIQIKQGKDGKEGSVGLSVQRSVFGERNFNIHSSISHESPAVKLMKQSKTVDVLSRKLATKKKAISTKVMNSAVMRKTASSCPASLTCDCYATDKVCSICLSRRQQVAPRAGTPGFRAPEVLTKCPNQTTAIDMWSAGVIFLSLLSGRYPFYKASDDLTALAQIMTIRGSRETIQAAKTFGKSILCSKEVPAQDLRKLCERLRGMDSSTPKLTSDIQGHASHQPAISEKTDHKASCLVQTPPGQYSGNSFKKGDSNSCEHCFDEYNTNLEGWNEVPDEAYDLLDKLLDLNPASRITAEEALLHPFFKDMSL
CDC7/DBF4, sequence (Q9UBU7 whole entry partner): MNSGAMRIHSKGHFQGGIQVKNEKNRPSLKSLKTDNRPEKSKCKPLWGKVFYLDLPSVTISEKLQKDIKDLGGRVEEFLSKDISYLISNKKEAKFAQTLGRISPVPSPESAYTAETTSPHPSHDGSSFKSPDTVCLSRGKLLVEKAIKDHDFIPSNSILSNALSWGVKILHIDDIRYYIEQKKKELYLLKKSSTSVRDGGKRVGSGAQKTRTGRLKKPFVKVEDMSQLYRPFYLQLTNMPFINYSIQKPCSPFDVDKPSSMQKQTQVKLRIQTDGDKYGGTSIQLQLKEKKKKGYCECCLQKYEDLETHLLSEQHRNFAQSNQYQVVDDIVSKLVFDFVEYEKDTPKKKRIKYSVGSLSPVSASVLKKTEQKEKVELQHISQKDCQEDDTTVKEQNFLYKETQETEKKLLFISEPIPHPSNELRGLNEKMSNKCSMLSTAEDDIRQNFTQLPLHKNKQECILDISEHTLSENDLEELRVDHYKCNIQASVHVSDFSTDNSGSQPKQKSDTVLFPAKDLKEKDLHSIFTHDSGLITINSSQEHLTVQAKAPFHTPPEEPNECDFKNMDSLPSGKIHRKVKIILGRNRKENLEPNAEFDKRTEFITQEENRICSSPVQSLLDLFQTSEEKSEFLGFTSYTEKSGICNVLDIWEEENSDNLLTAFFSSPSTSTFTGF

[13] = target: CDK8/CycC (Homo sapiens, UniProt P49336); experiment: Kinase profiling; format: biochemical; settings: 10 semi-logarithmic dilutions from 50 μM, singlicate
[14] = target: T2, DYRK2 (Homo sapiens, UniProt Q92630); experiment: Kinase profiling; format: biochemical
T2 sequence (Q92630 1-601): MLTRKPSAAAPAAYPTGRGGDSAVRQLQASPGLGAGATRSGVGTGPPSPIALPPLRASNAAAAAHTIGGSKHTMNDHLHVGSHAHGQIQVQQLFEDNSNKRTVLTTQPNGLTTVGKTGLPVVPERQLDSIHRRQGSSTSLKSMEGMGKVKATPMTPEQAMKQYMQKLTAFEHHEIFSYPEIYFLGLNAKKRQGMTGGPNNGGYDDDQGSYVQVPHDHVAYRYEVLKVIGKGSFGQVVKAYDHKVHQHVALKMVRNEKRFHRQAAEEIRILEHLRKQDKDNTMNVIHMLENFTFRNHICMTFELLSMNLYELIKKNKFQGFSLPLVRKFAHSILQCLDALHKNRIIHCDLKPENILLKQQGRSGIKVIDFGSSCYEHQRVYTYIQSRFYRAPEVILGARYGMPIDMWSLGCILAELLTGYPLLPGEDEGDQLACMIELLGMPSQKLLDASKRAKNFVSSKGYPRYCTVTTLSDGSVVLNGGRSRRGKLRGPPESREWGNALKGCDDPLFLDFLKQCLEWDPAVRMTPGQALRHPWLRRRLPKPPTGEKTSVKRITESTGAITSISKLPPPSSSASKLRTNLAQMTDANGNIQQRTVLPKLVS

[15] = Metabolic stability in hepatocytes; format: in vitro ADME; settings: human, 60-90 min test
[16] = tested on: SW1783 glioblastoma cell line (pRB mutant); experiment: Proliferation assay: determination of GI50; format: cell-based; settings: Homo sapiens, Table 4, n = 4, read-out: Growth inhibition GI50, Glioblastoma pRB Mutant SW1783
Protocol: as §1, §2, §3

[17] = tested on: MDA-MB-468 breast carcinoma cell line (pRB mutant); experiment: Proliferation assay: determination of GI50; format: cell-based; settings: Homo sapiens, Table 4, n = 2, read-out: Growth inhibition GI50, Breast cancer pRB Mutant MDA-MB-468
Protocol: as §1, §2, §3

[18] = Thermodynamic solubility (pH 7.4); format: physicochemical; settings: pH 7.4, aqueous buffer, thermodynamic from solid
[19] = Metabolic stability in microsomes; format: in vitro ADME; settings: human, 60-90 min test
[20] = not told
[21] = Metabolic stability in hepatocytes; format: in vitro ADME; settings: mouse, 60-90 min test
[22] = Permeability Caco-2 cells; format: in vitro ADME; settings: human, Caco-2
[23] = tested on: Caco-2 cells; experiment: Permeability Caco-2 cells; format: in vitro ADME
[24] = tested on: Cdk2/4/6_KO MEFs; experiment: Cell growth in Cdk-deficient MEFs; format: cell-based, mouse; settings: relative cell count day 6 versus day 3; FIG. 4
Protocol: (§4) Cdk-deficient MEFs were plated in 10-cm dish in triplicate (100,000/well) and treated with the selected compounds at the indicated concentration, based on GI50 previously determined in the MDA-MB-231 cell line. Cells were counted in an optical microscope 3 and 6 days after treatment to estimate the relative cell growth in each condition.
(§5) To further investigate the relative functional dependence of the subject compounds on CDK2 versus CDK4 or CDK6, the specific effects of PS004, PS006 and PS009 were tested on CDK-deficient mouse embryonic fibroblasts (MEFs) obtained from Cdk2 knock out, Cdk4; Cdk6-double knock out and Cdk2; Cdk4; Cdk6-triple knock out mouse models.

[25] = tested on: Cdk4/6_KO MEFs; experiment: Cell growth in Cdk-deficient MEFs; format: cell-based, mouse; settings: relative cell count day 6 versus day 3; FIG. 4
Protocol: as §4, §5

[26] = Kinetic solubility (pH 7.4); format: physicochemical; settings: pH 7.4, aqueous buffer, kinetic from dmso stock
[27] = Metabolic stability in microsomes; format: in vitro ADME; settings: mouse, 60-90 min test
[28] = Table 3, 48 h, n = 3 independent experiments, read-out: GI50 U87MG
[29] = Table 3, 48 h, n = 3 independent experiments, read-out: GI50 MDA-MB231

CDK3/CycE1, sequence (Q00526 whole entry): as the sequence (Q00526 whole entry) above
CDK3/CycE1, sequence (P24864 whole entry partner): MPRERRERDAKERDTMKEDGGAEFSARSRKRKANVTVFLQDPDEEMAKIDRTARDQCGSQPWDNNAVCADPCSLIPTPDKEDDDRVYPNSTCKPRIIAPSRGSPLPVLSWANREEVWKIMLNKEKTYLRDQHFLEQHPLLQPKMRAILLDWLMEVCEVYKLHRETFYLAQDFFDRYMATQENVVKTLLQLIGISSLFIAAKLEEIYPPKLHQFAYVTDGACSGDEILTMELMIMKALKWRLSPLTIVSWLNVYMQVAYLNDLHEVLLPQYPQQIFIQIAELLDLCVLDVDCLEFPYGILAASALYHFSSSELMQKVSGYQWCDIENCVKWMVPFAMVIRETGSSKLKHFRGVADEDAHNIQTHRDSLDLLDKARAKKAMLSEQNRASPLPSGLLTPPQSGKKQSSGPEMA

## CCN1CCN(Cc2ccc(Nc3ncc(F)c(-c4cc(F)c5nc(C)n(C(C)C)c5c4)n3)nc2)CC1 [Abemaciclib, reference compound]
[1]
  IC50: > 50 µM
[2]
  IC50: > 50 µM
[3]; 10 semi-logarithmic dilutions from 50 μM, singlicate, read-out: IC50 HIPK2
  IC50: 46.4 µM
[4]
  IC50: > 50 µM
[5]
  IC50: 49.7 µM
[6]
  GI50: 1.24 µM
[7]; [28]
  GI50: 0.47 µM
[8]
  GI50: 3.1 µM
[9]; [29]
  GI50: 1.5 µM
[10]
  IC50: 21 µM
[11]
  IC50: > 50 µM
[12]; 10 semi-logarithmic dilutions from 50 μM, singlicate, read-out: IC50 CDC7/DBF4
  IC50: > 50 µM
[13]
  IC50: > 50 µM

## CC[C@H](CO)Nc1nc(NCc2ccccc2)c2ncn(C(C)C)c2n1 [Roscovitine, reference compound]
[14]
  IC50: 38.1 µM
[3]
  IC50: > 50 µM
[12]
  IC50: 42.1 µM

## CC(=O)c1c(C)c2cnc(Nc3ccc(N4CCNCC4)cn3)nc2n(C2CCCC2)c1=O [Palbociclib, reference compound]
[15]; read-out: Metabolic stability, Human hepatocytes: Clearance
  hepatocyte CLint: < 6.4 µL/min/1e6 cells
[15]; read-out: Metabolic stability, Human hepatocytes: t1/2
  half-life: > 3.61 h
[14]; 10 semi-logarithmic dilutions from 50 μM, singlicate, read-out: IC50 DYRK2
  IC50: 6.91 µM
[16]
  GI50: 19.9 µM
[17]
  GI50: 9.5 µM
[18]
  solubility thermodynamic: 2.32 µM (≈ 1.04 µg/mL)
[4]
  IC50: 11.8 µM
[19]; read-out: Metabolic stability, Human microsomes: Clearance
  microsomal CLint: 23.6 µL/min/mg
[19]; read-out: Metabolic stability, Human microsomes: t1/2
  half-life: 0.98 h
[20]
  Summary: permeability: Low
[6]
  GI50: 0.47 µM
[7]; [28]
  GI50: 0.43 µM
[7]; Table 4, n = 4, read-out: Growth inhibition GI50, Glioblastoma pRB Wild-Type U87MG
  GI50: 5.7 µM
[8]
  GI50: 1.32 µM
[9]; [29]
  GI50: 0.74 µM
[9]; Table 4, n = 4, read-out: Growth inhibition GI50, Breast cancer pRB Wild-Type MDA-MB-231
  GI50: 1.7 µM
[21]; read-out: Metabolic stability, Mouse heptocytes: Clearance
  hepatocyte CLint: 14.4 µL/min/1e6 cells
[21]; read-out: Metabolic stability, Mouse heptocytes: t1/2
  half-life: 1.61 h
[22]
  Papp: 0.4 ×10⁻⁶ cm/s
[23]
  Permeability Caco-2 cells: Permeability, grade in words: (low)
[24]
  cell proliferation of Cdk2; Cdk4; Cdk6-triple knock out MEFs: did not show activity
[25]
  cell proliferation of Cdk4; Cdk6-double knock out MEFs: did not show activity
[26]
  solubility kinetic: 19.9 µM (≈ 8.92 µg/mL)
[27]; read-out: Metabolic stability, Mouse microsomes: Clearance
  microsomal CLint: 18.3 µL/min/mg
[27]; read-out: Metabolic stability, Mouse microsomes: t1/2
  half-life: 1.26 h
